Laboratory results: US20240140958A1, “FUSED QUADRACYCLIC COMPOUNDS, COMPOSITIONS AND USES THEREOF” (Tabomedex Biosciences, Inc., priority 2021, published 2024)

Legend:
[1] = target: T1, MAPKAPK2 Recombinant Human Protein (Homo sapiens, UniProt P49137); assay: MK2 kinase assay (Z'-LYTE kinase assay kit); conditions: inhibition of MK2 biochemical activity; 90 min incubation at room temperature
T1 construct: purchased ThermoFisher pv3317
Summary of the method: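 Z'-LYTE FRET assay with recombinant human MAPKAPK2 and peptide substrate; compound and ATP added, kinase reaction 90 min at room temperature, then development 60 min before stop. Coumarin (445 nm) and fluorescein (520 nm) emissions read at 400 nm excitation.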

THP-1 cells = assay: THP-1 cell assay: LPS-stimulated pSer78-Hsp27 ELISA; type: cell-based; conditions: Homo sapiens, PMA-differentiated THP-1 cells, compound 60 min before 20 ng/mL LPS for 30 min
Summary of the method: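 PMA-differentiated THP-1 cells (20 ng/mL PMA 24 h, then 48 h recovery) pretreated with compound 60 min, then stimulated with 20 ng/mL LPS for 30 min. Lysates (~2.5 μg/well) assayed by sandwich ELISA for pSer78-Hsp27, absorbance at 450 nm.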

T1 sequence (P49137 whole entry): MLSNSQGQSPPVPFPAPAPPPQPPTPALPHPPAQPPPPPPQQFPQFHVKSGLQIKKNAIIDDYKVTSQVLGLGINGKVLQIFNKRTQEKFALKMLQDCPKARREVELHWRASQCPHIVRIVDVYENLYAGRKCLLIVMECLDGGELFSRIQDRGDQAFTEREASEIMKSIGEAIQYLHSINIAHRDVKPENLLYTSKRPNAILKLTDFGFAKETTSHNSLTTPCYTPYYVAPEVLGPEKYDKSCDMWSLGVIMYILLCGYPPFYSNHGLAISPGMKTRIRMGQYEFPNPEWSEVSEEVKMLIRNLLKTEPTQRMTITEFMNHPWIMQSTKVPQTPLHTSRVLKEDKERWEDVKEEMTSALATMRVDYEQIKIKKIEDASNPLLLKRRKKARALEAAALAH

| IC50 [1] | IC50 (THP-1 cells) | SMILES |
| --- | --- | --- |
| 50 to 100 nM | 200 to 300 nM | CN1CC(n2ccn(-c3ccc4c(c3)Cn3cc(-c5ccc(C#N)cc5)cc3-c3nccn3-4)c2=O)C1 [Example 71, 4-(7-(3-(1-Methylazetidin-3-yl)-2-oxo-2,3-dihydro-1H-imidazol-1-yl)-9H-benzo[e]imidazo[2,1-c]pyrrolo[1,2-a][1,4]diazepin-12-yl)benzonitrile] |
| < 50 nM | 100 to 200 nM | CC(C)(C)NC[C@H]1CC(=O)N(c2ccc3c(c2)Cn2cc(-c4ccc(C#N)cc4)cc2-c2nccn2-3)C1 [Example 13] |
| 50 to 100 nM | 300 to 400 nM | Cc1nnc2n1-c1ccc(N3C[C@@H](CN4CCC4)CC3=O)cc1Cn1cc(-c3ccc(C#N)cc3)cc1-2 [Example 82] |
| < 50 nM | < 50 nM | CC(C)(N)CN1C(=O)CN(c2ccc3c(c2)Cn2cc(-c4ccc(C#N)cc4)cc2-c2nccn2-3)C1=O [Example 68] |
| < 50 nM | 300 to 400 nM | CC(C)(N)C[C@H]1CCN(c2ccc3c(c2)Cn2cc(-c4ccc(C#N)cc4)cc2-c2nccn2-3)C1=O [Example 43, (R)-4-(7-(3-(2-Amino-2-methylpropyl)-2-oxopyrrolidin-1-yl)-9H-benzo[e]imidazo[2,1-c]pyrrolo[1,2-a][1,4]diazepin-12-yl)benzonitrile] |
| < 50 nM | < 50 nM | CNC[C@@H]1CN(c2ccc3c(c2)Cn2cc(-c4ccc(C#N)cc4)cc2-c2nccn2-3)C(=O)O1 [Example 3] |
| < 50 nM | < 50 nM | CN(C)C(C)(C)[C@H]1CC(=O)N(c2ccc3c(c2)Cn2cc(-c4ccc(C#N)cc4)cc2-c2nccn2-3)C1 [Example 54] |
| < 50 nM | 100 to 200 nM | CN(C)C[C@H]1CC(=O)N(c2ccc3c(c2)Cn2cc(-c4ccc(C#N)cc4)cc2-c2ncnn2-3)C1 [Example 87, (R)-4-(7-(4-((Dimethylamino)methyl)-2-oxopyrrolidin-1-yl)-9H-benzo[e]pyrrolo [1,2-a][1,2,4]triazolo[5,1-c][1,4]diazepin-12-yl)benzonitrile] |
| < 50 nM | < 50 nM | CN(C)CC[C@H]1CCN(c2ccc3c(c2)Cn2cc(-c4ccc(C#N)cc4)cc2-c2nccn2-3)C1=O (single isomer, unassigned) [Example 41] |
| < 50 nM | < 50 nM | CC(C)(C)NC[C@@H]1CN(c2ccc3c(c2)Cn2cc(-c4ccc(C#N)cc4)cc2-c2nccn2-3)C(=O)O1 [Example 4] |
| < 50 nM | 500 to 1000 nM | CN(C)CCn1ccn(-c2ccc3c(c2)Cn2cc(-c4ccc(C#N)cc4)cc2-c2nccn2-3)c1=O [Example 70, 4-(7-(3-(2-(Dimethylamino)ethyl)-2-oxo-2,3-dihydro-1H-imidazol-1-yl)-9H-benzo[e]imidazo[2,1-c]pyrrolo[1,2-a][1,4]diazepin-12-yl)benzonitrile] |
| 50 to 100 nM | 200 to 300 nM | CN(C)C[C@@H]1CC(=O)N(c2ccc3c(c2)Cn2cc(-c4ccc(C#N)cc4)cc2-c2nccn2-3)C1 [Example 17, (S)-4-(7-(4-((Dimethylamino)methyl)-2-oxopyrrolidin-1-yl)-9H-benzo[e]imidazo[2,1-c]pyrrolo[1,2-a][1,4]diazepin-12-yl)benzonitrile] |
